In PubChem BioAssay AID623945 (Vanderbilt Specialized Chemistry Center, 2012):

Biological target: Muscarinic acetylcholine receptor M4 (Rattus norvegicus) (UniProt P08485)
Test: rat M4 positive allosteric modulator potency, SAR follow-up, selectivity assay for human M4 PAM optimization, CHO cells, Gqi5 chimera, calcium, ACh EC20 (AID 623945)
Conditions: CHO rM4/Gqi5 calcium fluorescence, ACh EC20 potentiation

Sequence of Muscarinic acetylcholine receptor M4 (Rattus norvegicus) (P08485 whole entry, looked up): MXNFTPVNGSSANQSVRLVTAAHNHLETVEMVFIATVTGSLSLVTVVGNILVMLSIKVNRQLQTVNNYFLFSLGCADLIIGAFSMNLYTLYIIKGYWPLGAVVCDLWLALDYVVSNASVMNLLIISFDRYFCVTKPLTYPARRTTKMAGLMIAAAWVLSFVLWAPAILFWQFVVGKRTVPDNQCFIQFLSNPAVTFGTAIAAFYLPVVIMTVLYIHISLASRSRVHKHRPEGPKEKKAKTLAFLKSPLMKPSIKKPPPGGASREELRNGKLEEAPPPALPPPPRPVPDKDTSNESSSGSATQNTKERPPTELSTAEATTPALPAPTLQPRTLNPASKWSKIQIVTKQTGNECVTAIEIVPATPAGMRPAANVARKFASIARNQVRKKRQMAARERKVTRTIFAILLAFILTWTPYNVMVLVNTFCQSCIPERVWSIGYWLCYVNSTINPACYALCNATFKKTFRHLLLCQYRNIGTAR

Structure (SMILES)	EC50 [nM]
Cc1nc2sc(C(=O)NCc3ccncc3)c(N)c2c(C)c1Cl	173
Cc1nc2sc(C(=O)NC3CC3)c(N)c2c(C)c1Cl	151
Cc1nc2sc(C(=O)NCc3cccnc3)c(N)c2c(C)c1Cl	272
Cc1nc2sc(C(=O)NCc3ccccc3)c(N)c2c(C)c1Cl	126
Cc1nc2sc(C(=O)NCc3ccncn3)c(N)c2c(C)c1Cl	527

Next, values leading:

EC50 [nM]	Structure (SMILES)
114	Cc1nc2sc(C(=O)NCc3cccc(F)c3F)c(N)c2c(C)c1Cl
62	Cc1nc2sc(C(=O)NCc3ccc4c(c3)OCO4)c(N)c2c(C)c1Cl
187	Cc1nc2sc(C(=O)NCc3nccs3)c(N)c2c(C)c1Cl
229	Cc1nc2sc(C(=O)NCCc3ccncc3)c(N)c2c(C)c1Cl
3210	COc1ccc(C)c2sc(NC(=O)c3ccncc3)nc12
